Test results taken from PubChem BioAssay AID2060909 (Molecular Pharmacology Branch, DTP, NCI, 2025).

Test system: 362531-283-R-J2-PDC complex spheroid viability
Assay: Anticancer human tumor 362531-283-R-J2-PDC patient-derived colon adenocarcinoma cell line growth inhibition [RAS]
Conditions: for IC50: curve of first compound; for viability, T/C: stronger effect = lower value
Summary of the method: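 Multi-cell-type spheroids: tumor cells plus HUVEC endothelial cells and mesenchymal stem cells. RAS-pathway inhibitors were combined with targeted agents, each dosed in half-log steps down from clinical Cmax, or from 10 microM when Cmax was unknown.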

[1] = second compound 0.00316 µM, first compound 0.0316 µM
[2] = second compound 0.00316 µM, first compound 0.1 µM
[3] = second compound 0.00316 µM, first compound 0.316 µM
[4] = second compound 0.00316 µM, first compound 1 µM
[5] = second compound 0.00316 µM, first compound 3.16 µM
[6] = second compound 0.00316 µM, first compound 10 µM
[7] = second compound 0.01 µM, first compound 0.0316 µM
[8] = second compound 0.01 µM, first compound 0.1 µM
[9] = second compound 0.01 µM, first compound 0.316 µM
[10] = second compound 0.01 µM, first compound 1 µM
[11] = second compound 0.01 µM, first compound 3.16 µM
[12] = second compound 0.01 µM, first compound 10 µM
[13] = second compound 0.0316 µM, first compound 0.0316 µM
[14] = second compound 0.0316 µM, first compound 0.1 µM
[15] = second compound 0.0316 µM, first compound 0.316 µM
[16] = second compound 0.0316 µM, first compound 1 µM
[17] = second compound 0.0316 µM, first compound 3.16 µM
[18] = second compound 0.0316 µM, first compound 10 µM
[19] = second compound 0.1 µM, first compound 0.0316 µM
[20] = second compound 0.1 µM, first compound 0.1 µM
[21] = second compound 0.1 µM, first compound 0.316 µM
[22] = second compound 0.1 µM, first compound 1 µM
[23] = second compound 0.1 µM, first compound 3.16 µM
[24] = second compound 0.1 µM, first compound 10 µM
[25] = second compound 0.316 µM, first compound 0.0316 µM
[26] = second compound 0.316 µM, first compound 0.1 µM
[27] = second compound 0.316 µM, first compound 0.316 µM
[28] = second compound 0.316 µM, first compound 1 µM
[29] = second compound 0.316 µM, first compound 3.16 µM
[30] = second compound 0.316 µM, first compound 10 µM
[31] = second compound 1 µM, first compound 0.0316 µM
[32] = second compound 1 µM, first compound 0.1 µM
[33] = second compound 1 µM, first compound 0.316 µM
[34] = second compound 1 µM, first compound 1 µM
[35] = second compound 1 µM, first compound 3.16 µM
[36] = second compound 1 µM, first compound 10 µM
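Further: spheroids exposed to the agents for 7 days before readout.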
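Wherever viability, T/C is given: luminescence viability as percent of DMSO vehicle control wells.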

SMILES: CC(=O)OC12COC1CC(O)C1(C)C(=O)C(O)C3=C(C)C(OC(=O)C(O)C(NC(=O)OC(C)(C)C)c4ccccc4)CC(O)(C(OC(=O)c4ccccc4)C21)C3(C)C (stereo unspecified) + C=CC(=O)N1CCN(c2nc(OCC3CCCN3C)nc3c(F)c(-c4nc(N)cc(C)c4C(F)(F)F)c(Cl)cc23)C(C)C1
- IC50 (second compound 0.00316 µM): 206 nM
- IC50 (second compound 0.01 µM): 207 nM
- IC50 (second compound 0.0316 µM): 212 nM
- IC50 (second compound 0.1 µM): 211 nM
- IC50 (second compound 0.316 µM): 194 nM
- IC50 (second compound 1 µM): 219 nM
- viability, T/C [1]: 96.7%
- viability, T/C [2]: 87.7%
- viability, T/C [3]: 24.6%
- viability, T/C [4]: 20.6%
- viability, T/C [5]: 25.6%
- viability, T/C [6]: 39.1%
- viability, T/C [7]: 106%
- viability, T/C [8]: 87.8%
- viability, T/C [9]: 24.2%
- viability, T/C [10]: 22.8%
- viability, T/C [11]: 25.5%
- viability, T/C [12]: 39.8%
- viability, T/C [13]: 99.4%
- viability, T/C [14]: 94.3%
- viability, T/C [15]: 21.5%
- viability, T/C [16]: 22.2%
- viability, T/C [17]: 25.2%
- viability, T/C [18]: 37.3%
- viability, T/C [19]: 97.4%
- viability, T/C [20]: 89.1%
- viability, T/C [21]: 27%
- viability, T/C [22]: 20.1%
- viability, T/C [23]: 27.3%
- viability, T/C [24]: 40.2%
- viability, T/C [25]: 107%
- viability, T/C [26]: 76.4%
- viability, T/C [27]: 25.3%
- viability, T/C [28]: 18%
- viability, T/C [29]: 34.6%
- viability, T/C [30]: 44.1%
- viability, T/C [31]: 106%
- viability, T/C [32]: 86.4%
- viability, T/C [33]: 27.3%
- viability, T/C [34]: 23.4%
- viability, T/C [35]: 35.1%
- viability, T/C [36]: 45.5%

SMILES: NC1c2ccccc2OC12CCN(c1cnc3c(N4CCCc5ncccc54)n[nH]c3n1)CC2 (stereo unspecified) + C=CC(=O)N1CCN(c2nc(OCC3CCCN3C)nc3c(F)c(-c4nc(N)cc(C)c4C(F)(F)F)c(Cl)cc23)C(C)C1
- IC50 (second compound 0.00316 µM): 3840 nM
- IC50 (second compound 0.01 µM): 5870 nM
- IC50 (second compound 0.0316 µM): 4670 nM
- IC50 (second compound 0.1 µM): 6190 nM
- IC50 (second compound 0.316 µM): 7660 nM
- IC50 (second compound 1 µM): 8020 nM
- viability, T/C [1]: 102%
- viability, T/C [2]: 76.8%
- viability, T/C [3]: 83.8%
- viability, T/C [4]: 60%
- viability, T/C [5]: 56.2%
- viability, T/C [6]: 37.9%
- viability, T/C [7]: 92.1%
- viability, T/C [8]: 82.2%
- viability, T/C [9]: 75.1%
- viability, T/C [10]: 72.5%
- viability, T/C [11]: 57.8%
- viability, T/C [12]: 42.3%
- viability, T/C [13]: 89.4%
- viability, T/C [14]: 86.7%
- viability, T/C [15]: 73.3%
- viability, T/C [16]: 66.6%
- viability, T/C [17]: 58.3%
- viability, T/C [18]: 38.4%
- viability, T/C [19]: 93%
- viability, T/C [20]: 83.6%
- viability, T/C [21]: 79.2%
- viability, T/C [22]: 64%
- viability, T/C [23]: 61.9%
- viability, T/C [24]: 43%
- viability, T/C [25]: 94.4%
- viability, T/C [26]: 91.6%
- viability, T/C [27]: 78.4%
- viability, T/C [28]: 68.9%
- viability, T/C [29]: 65.7%
- viability, T/C [30]: 44.5%
- viability, T/C [31]: 91%
- viability, T/C [32]: 79.2%
- viability, T/C [33]: 74.7%
- viability, T/C [34]: 70%
- viability, T/C [35]: 61.9%
- viability, T/C [36]: 45.7%

SMILES: Nc1ccn(C2OC(CO)C(O)C2(F)F)c(=O)n1 (stereo unspecified) + C=CC(=O)N1CCN(c2nc(OCC3CCCN3C)nc3c(F)c(-c4nc(N)cc(C)c4C(F)(F)F)c(Cl)cc23)C(C)C1
- IC50 (second compound 0.00316 µM): 129 nM
- IC50 (second compound 0.01 µM): 169 nM
- IC50 (second compound 0.0316 µM): 154 nM
- IC50 (second compound 0.1 µM): 130 nM
- IC50 (second compound 0.316 µM): 180 nM
- IC50 (second compound 1 µM): 144 nM
- viability, T/C (second compound 0.00316 µM, first compound 0.00316 µM): 107%
- viability, T/C (second compound 0.00316 µM, first compound 0.01 µM): 100%
- viability, T/C [1]: 81.2%
- viability, T/C [2]: 61.8%
- viability, T/C [3]: 22.7%
- viability, T/C [4]: 29.7%
- viability, T/C (second compound 0.01 µM, first compound 0.00316 µM): 93.5%
- viability, T/C (second compound 0.01 µM, first compound 0.01 µM): 95.3%
- viability, T/C [7]: 80.9%
- viability, T/C [8]: 70%
- viability, T/C [9]: 21.7%
- viability, T/C [10]: 30.7%
- viability, T/C (second compound 0.0316 µM, first compound 0.00316 µM): 93.5%
- viability, T/C (second compound 0.0316 µM, first compound 0.01 µM): 91%
- viability, T/C [13]: 87.7%
- viability, T/C [14]: 64.9%
- viability, T/C [15]: 23.6%
- viability, T/C [16]: 27%
- viability, T/C (second compound 0.1 µM, first compound 0.00316 µM): 94.9%
- viability, T/C (second compound 0.1 µM, first compound 0.01 µM): 94.9%
- viability, T/C [19]: 77.4%
- viability, T/C [20]: 61%
- viability, T/C [21]: 23.6%
- viability, T/C [22]: 31.7%
- viability, T/C (second compound 0.316 µM, first compound 0.00316 µM): 93.8%
- viability, T/C (second compound 0.316 µM, first compound 0.01 µM): 97.1%
- viability, T/C [25]: 89.4%
- viability, T/C [26]: 75.7%
- viability, T/C [27]: 23.3%
- viability, T/C [28]: 27.6%
- viability, T/C (second compound 1 µM, first compound 0.00316 µM): 105%
- viability, T/C (second compound 1 µM, first compound 0.01 µM): 97.9%
- viability, T/C [31]: 78.9%
- viability, T/C [32]: 65.2%
- viability, T/C [33]: 25.1%
- viability, T/C [34]: 29.7%
